Legend:
[1] = species on record: Rattus norvegicus; assay: Effect on the wound healing in rats at 7th postoperative day by measuring tensile strength of skin strips from the wound segments; format: functional
[2] = species on record: Rattus norvegicus; assay: Tested for its effect on the wound healing in rats at 7th postoperative day by measuring tensile strength of skin strips from the wound segments; value relative to control(100); format: functional

CCCCOC(C)OC(=O)[C@]12CC[C@@H](C)[C@H](C)C1C1=CCC3[C@@]4(C)C[C@@H](O)[C@H](O)[C@@](C)(CO)C4CC[C@@]3(C)[C@]1(C)CC2 (stereo not given in full)
Tensile strength [1]: 362 g cm**-2
Relative value [2]: 126

COCCOCOC(=O)[C@]12CC[C@@H](C)[C@H](C)C1C1=CCC3[C@@]4(C)C[C@@H](OC(C)=O)[C@H](OC(C)=O)[C@@](C)(COC(C)=O)C4CC[C@@]3(C)[C@]1(C)CC2 (stereo not given in full)
Tensile strength [1]: 320 g cm**-2
Relative value [2]: 141

CCCCCCCCOCOC(=O)[C@]12CC[C@@H](C)[C@H](C)C1C1=CCC3[C@@]4(C)C[C@@H](O)[C@H](O)[C@@](C)(CO)C4CC[C@@]3(C)[C@]1(C)CC2 (stereo not given in full)
Tensile strength [1]: 468 g cm**-2
Relative value [2]: 163

C[C@@H]1CC[C@]2(C(=O)O)CC[C@]3(C)C(=CCC4[C@@]5(C)C[C@@H](O)[C@H](O)[C@@](C)(CO)C5CC[C@]43C)C2[C@H]1C (stereo not given in full)
Tensile strength [1]: 418 g cm**-2
Relative value [2]: 146

CCOCOC(=O)[C@]12CC[C@@H](C)[C@H](C)C1C1=CCC3[C@@]4(C)C[C@@H](OC(C)=O)[C@H](OC(C)=O)[C@@](C)(COC(C)=O)C4CC[C@@]3(C)[C@]1(C)CC2 (stereo not given in full)
Tensile strength [1]: 487 g cm**-2
Relative value [2]: 215

CCOCOC(=O)[C@]12CC[C@@H](C)[C@H](C)C1C1=CCC3[C@@]4(C)C[C@@H](O)[C@H](O)[C@@](C)(CO)C4CC[C@@]3(C)[C@]1(C)CC2 (stereo not given in full)
Tensile strength [1]: 476 g cm**-2
Relative value [2]: 166

COCCOCOC(=O)[C@]12CC[C@@H](C)[C@H](C)C1C1=CCC3[C@@]4(C)C[C@@H](O)[C@H](O)[C@@](C)(CO)C4CC[C@@]3(C)[C@]1(C)CC2 (stereo not given in full)
Tensile strength [1]: 398 g cm**-2
Relative value [2]: 139

COCOC(=O)[C@]12CC[C@@H](C)[C@H](C)C1C1=CCC3[C@@]4(C)C[C@@H](OC(C)=O)[C@H](OC(C)=O)[C@@](C)(COC(C)=O)C4CC[C@@]3(C)[C@]1(C)CC2 (stereo not given in full)
Tensile strength [1]: 330 g cm**-2
Relative value [2]: 145

CCCCCCCCOCOC(=O)[C@]12CC[C@@H](C)[C@H](C)C1C1=CCC3[C@@]4(C)C[C@@H](OC(C)=O)[C@H](OC(C)=O)[C@@](C)(COC(C)=O)C4CC[C@@]3(C)[C@]1(C)CC2 (stereo not given in full)
Tensile strength [1]: 310 g cm**-2
Relative value [2]: 137

CCOC(C)OC(=O)[C@]12CC[C@@H](C)[C@H](C)C1C1=CCC3[C@@]4(C)C[C@@H](O)[C@H](O)[C@@](C)(CO)C4CC[C@@]3(C)[C@]1(C)CC2 (stereo not given in full)
Tensile strength [1]: 387 g cm**-2
Relative value [2]: 135

CC(=O)OC[C@@]1(C)C2CC[C@]3(C)C(CC=C4C5[C@@H](C)[C@H](C)CC[C@]5(C(=O)OC5CCCO5)CC[C@]43C)[C@@]2(C)C[C@@H](OC(C)=O)[C@@H]1OC(C)=O (stereo not given in full)
Tensile strength [1]: 331 g cm**-2
Relative value [2]: 145

CC(=O)OC[C@@]1(C)C2CC[C@]3(C)C(CC=C4C5[C@@H](C)[C@H](C)CC[C@]5(C(=O)OC5CCCCO5)CC[C@]43C)[C@@]2(C)C[C@@H](OC(C)=O)[C@@H]1OC(C)=O (stereo not given in full)
Tensile strength [1]: 393 g cm**-2
Relative value [2]: 173

C[C@@H]1CC[C@]2(C(=O)OC3CCCCO3)CC[C@]3(C)C(=CCC4[C@@]5(C)C[C@@H](O)[C@H](O)[C@@](C)(CO)C5CC[C@]43C)C2[C@H]1C (stereo not given in full)
Tensile strength [1]: 481 g cm**-2
Relative value [2]: 168

COCOC(=O)[C@]12CC[C@@H](C)[C@H](C)C1C1=CCC3[C@@]4(C)C[C@@H](O)[C@H](O)[C@@](C)(CO)C4CC[C@@]3(C)[C@]1(C)CC2 (stereo not given in full)
Tensile strength [1]: 404 g cm**-2
Relative value [2]: 141

C[C@@H]1CC[C@]2(C(=O)OCOCc3ccccc3)CC[C@]3(C)C(=CCC4[C@@]5(C)C[C@@H](O)[C@H](O)[C@@](C)(CO)C5CC[C@]43C)C2[C@H]1C (stereo not given in full)
Tensile strength [1]: 327 g cm**-2
Relative value [2]: 114

Reference: ChEMBL document CHEMBL1128947, “Asiaticoside mimetics as wound healing agent” (1996)
